Laboratory results from patent US20220125913A1, “[…] PEPTIDES, AMINO-ACID SEQUENCES, AND COMPOSITIONS USEFUL FOR SARS-CoV-2 DETECTION AND COVID-19 PREVENTION” (priority 2020, published 2022).

System: SARS-CoV-2 circulation lineages in Colombia (B.1, B.1.111, B.1.111+E48K)
Settings: in vivo, sc

| Sequence | sera neutralizing antibodies |
| --- | --- |
| CGKDQVILLNKHIDAYKTFPPTGC [PHE-30] | detected |
| CGVLSFELLHAPATVSGPKKSTNGC [PHE-14] | detected |
| CGVTLAILTALRLSAYSSNIVGC [PHE-20] | detected |
